According to PMC9929129, “Towards Translation of PqsR Inverse Agonists: From In Vitro Efficacy Optimization to In Vivo Proof‐of‐Principle” (Advanced Science, 2023):
Converted amounts (≈) assume the structure as drawn.

How the values were obtained:
[1] = tested on: Pseudomonas aeruginosa PA14; assay: Pyocyanin assay in Pseudomonas aeruginosa; format: cell-based; details: PA14, 16 h, read-out: IC50 Pyocyanin
Experimental: 1.2.2 Pyocyanin assay in Pseudomonas aeruginosa
Inhibition of pyocyanin biosynthesis of compounds was measured spectrophotometrically as previously described.[2] Pseudomonas aeruginosa PA14 was grown in rich medium for 16 h under agitation with and without compound. Pyocyanin was extracted from cultures with chloroform, then re-extracted with 0.2 M HCl and quantified photometrically (520 nm). IC50 values were determined from dose-response curves of compounds using at least six different concentrations and fitting with non-linear regression analysis (OriginPro 2017–2020, Originlab Corporation). […]

[2] = Metabolic stability in mouse hepatocytes; format: in vitro ADME; details: read-out: Mouse hepatocytes t½
[3] = Plasma protein binding, human (equilibrium dialysis); format: in vitro ADME
Experimental: 1.4.4 Pharmacokinetic and off-target functional assays (Cyprotex)
Compound 24 was assayed at Cyprotex in functional assays for interference with important off-targets as well as important pharmacokinetic parameters. With the exception of plasma protein binding, a dose-response relationship was studied in order to calculate IC50 values.
Table S10. Information on in vitro ADMET assays performed at Cyprotex. […]
Plasma protein binding assay (human and Equilibrium dialysis […]
An increase in the number of colonies of at least two-fold over baseline (mean + SD of the vehicle control) and a dose response indicate a positive response. An […]
different from the vehicle control.
Where indicated, S9 fraction from the livers of Aroclor 1254-treated rats were included in the incubation at a final concentration of 4.5%. A NADPH-regenerating system was also included to ensure a steady supply of reducing equivalents.

[4] = biological target: T1, Cav1.2 (L-type) human Ca ion channel (Homo sapiens, UniProt Q13936); assay: cell-based
T1 construct: Eurofins CYL8051QP2DR
Experimental: 1.4.2 Further functional off-target assays (Eurofins)
Table S8. Compound 24 was further tested in the following functional assays at Eurofins. […]
Cav1.2 (L-type) human Ca ion channel cell based automated patch >30 µM clamp assay (CYL8051QP2DR) […]
FLIPR Assay expressed in HEK293 cells
GABAA α5/β3/γ2 ionotropic receptor (human GABRA5, GABRB3, >30 and GABRG2 genes, expressed in HEK293 cells

5-HT transporter (h) = biological target: T2, 5-HT transporter (h) (Homo sapiens, UniProt P31645); assay: Cerep panel binding assay; details: antagonist radioligand
T2 construct: purchased Eurofins Pharma Discovery (Cerep) SafetyScreen44 Panel, ITEM P270
T2 sequence (P31645 whole entry): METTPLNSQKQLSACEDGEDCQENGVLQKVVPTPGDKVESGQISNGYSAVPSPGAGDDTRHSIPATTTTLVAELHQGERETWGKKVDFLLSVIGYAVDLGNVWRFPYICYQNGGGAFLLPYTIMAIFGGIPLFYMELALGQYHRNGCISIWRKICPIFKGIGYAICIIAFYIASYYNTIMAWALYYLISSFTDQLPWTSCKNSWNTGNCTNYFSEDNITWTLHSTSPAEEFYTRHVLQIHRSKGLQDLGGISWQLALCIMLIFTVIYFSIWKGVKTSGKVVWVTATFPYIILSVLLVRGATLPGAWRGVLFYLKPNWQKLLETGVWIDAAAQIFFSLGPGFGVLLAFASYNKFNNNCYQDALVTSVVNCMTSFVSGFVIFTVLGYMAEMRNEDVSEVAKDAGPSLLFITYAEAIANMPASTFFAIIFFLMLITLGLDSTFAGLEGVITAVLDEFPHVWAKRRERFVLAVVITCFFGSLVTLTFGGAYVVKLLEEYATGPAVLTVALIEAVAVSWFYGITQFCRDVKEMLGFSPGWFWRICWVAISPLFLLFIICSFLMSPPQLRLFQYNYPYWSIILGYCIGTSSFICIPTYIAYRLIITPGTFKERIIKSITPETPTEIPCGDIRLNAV
Experimental: (§1) 1.4 Safety Pharmacology of Compound 24
(§2) 1.4.1 Cerep panel (Eurofins)
(§3) Compound 24 was further profiled for its off-target interactions against a panel of 44 targets. The
(§4) screening was done by Eurofins Pharma Discovery within the SafetyScreen44 Panel (Cerep, ITEM
(§5) P270). In all assays binding/functional inhibition was determined at 10 µM.
(§6) Table S6. […]

5-HT1B (h) = biological target: T3, 5-HT1B (h) (Homo sapiens, UniProt P28222); assay: Cerep panel binding assay; details: antagonist radioligand
T3 construct: Eurofins Pharma Discovery (CRO that ran the assay) SafetyScreen44 Panel (Cerep, ITEM P270)
T3 sequence (P28222 whole entry): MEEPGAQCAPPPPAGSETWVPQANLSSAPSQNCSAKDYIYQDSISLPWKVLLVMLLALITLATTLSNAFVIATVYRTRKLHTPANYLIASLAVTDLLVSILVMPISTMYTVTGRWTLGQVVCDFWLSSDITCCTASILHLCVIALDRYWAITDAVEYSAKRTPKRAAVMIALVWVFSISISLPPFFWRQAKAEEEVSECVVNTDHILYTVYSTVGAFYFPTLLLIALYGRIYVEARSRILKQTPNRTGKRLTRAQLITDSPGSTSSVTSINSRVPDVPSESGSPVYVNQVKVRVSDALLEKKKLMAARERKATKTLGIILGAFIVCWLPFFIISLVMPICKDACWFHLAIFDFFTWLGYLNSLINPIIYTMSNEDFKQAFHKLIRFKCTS
Experimental: as §1, §2, §3, §4, §5, §6

5-HT2B (h) = biological target: T4, 5-HT2B (h) (Homo sapiens, UniProt P41595); assay: Cerep panel binding assay; details: agonist radioligand
T4 construct: purchased Eurofins Pharma Discovery (Cerep) SafetyScreen44 Panel, ITEM P270
T4 sequence (P41595 whole entry): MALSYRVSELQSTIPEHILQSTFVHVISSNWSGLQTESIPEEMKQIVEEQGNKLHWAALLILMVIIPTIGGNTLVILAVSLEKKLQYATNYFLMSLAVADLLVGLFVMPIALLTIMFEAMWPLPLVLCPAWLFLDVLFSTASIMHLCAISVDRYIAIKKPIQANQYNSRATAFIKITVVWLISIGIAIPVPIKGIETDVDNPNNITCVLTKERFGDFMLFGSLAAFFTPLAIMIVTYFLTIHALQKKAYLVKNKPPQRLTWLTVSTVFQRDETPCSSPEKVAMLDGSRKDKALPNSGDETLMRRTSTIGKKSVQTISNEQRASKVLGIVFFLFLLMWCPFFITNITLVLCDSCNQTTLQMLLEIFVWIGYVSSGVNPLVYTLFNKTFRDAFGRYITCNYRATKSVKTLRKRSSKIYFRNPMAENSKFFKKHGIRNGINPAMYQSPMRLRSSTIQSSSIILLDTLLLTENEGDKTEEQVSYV
Experimental: as §1, §2, §3, §4, §5, §6

A2A (h) = biological target: T5, A2A (h) (Homo sapiens, UniProt P29274); assay: Cerep panel binding assay; details: 10 µM, agonist radioligand
T5 construct: Eurofins Pharma Discovery (CRO that ran the assay) SafetyScreen44 Panel (Cerep, ITEM P270)
T5 sequence (P29274 whole entry): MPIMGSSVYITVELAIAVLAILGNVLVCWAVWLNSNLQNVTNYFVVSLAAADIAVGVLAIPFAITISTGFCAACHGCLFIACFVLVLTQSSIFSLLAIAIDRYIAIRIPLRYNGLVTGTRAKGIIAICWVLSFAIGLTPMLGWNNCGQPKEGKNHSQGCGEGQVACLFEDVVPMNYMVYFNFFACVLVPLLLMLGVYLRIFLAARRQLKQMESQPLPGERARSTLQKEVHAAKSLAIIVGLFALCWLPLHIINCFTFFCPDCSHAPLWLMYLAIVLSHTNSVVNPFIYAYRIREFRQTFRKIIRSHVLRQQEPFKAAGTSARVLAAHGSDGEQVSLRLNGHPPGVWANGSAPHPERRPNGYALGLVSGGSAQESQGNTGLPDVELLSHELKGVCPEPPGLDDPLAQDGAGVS
Experimental: as §1, §2, §3, §4, §5, §6

AR (h) = biological target: T6, AR (h) (Homo sapiens, UniProt P10275, T878A); assay: Cerep panel binding assay; details: agonist radioligand
T6 construct: purchased Eurofins Pharma Discovery (Cerep) SafetyScreen44 Panel, ITEM P270
Experimental: as §1, §2, §3, §4, §5, §6

BZD (central) = assay: Cerep panel binding assay; details: 10 µM, agonist radioligand
Experimental: as §1, §2, §3, §4, §5, §6

CB1 (h) = biological target: T7, CB1 (h) (Homo sapiens, UniProt P21554); assay: Cerep panel binding assay; details: agonist radioligand
T7 construct: purchased Eurofins Pharma Discovery (Cerep) SafetyScreen44 Panel, ITEM P270
T7 sequence (P21554 whole entry): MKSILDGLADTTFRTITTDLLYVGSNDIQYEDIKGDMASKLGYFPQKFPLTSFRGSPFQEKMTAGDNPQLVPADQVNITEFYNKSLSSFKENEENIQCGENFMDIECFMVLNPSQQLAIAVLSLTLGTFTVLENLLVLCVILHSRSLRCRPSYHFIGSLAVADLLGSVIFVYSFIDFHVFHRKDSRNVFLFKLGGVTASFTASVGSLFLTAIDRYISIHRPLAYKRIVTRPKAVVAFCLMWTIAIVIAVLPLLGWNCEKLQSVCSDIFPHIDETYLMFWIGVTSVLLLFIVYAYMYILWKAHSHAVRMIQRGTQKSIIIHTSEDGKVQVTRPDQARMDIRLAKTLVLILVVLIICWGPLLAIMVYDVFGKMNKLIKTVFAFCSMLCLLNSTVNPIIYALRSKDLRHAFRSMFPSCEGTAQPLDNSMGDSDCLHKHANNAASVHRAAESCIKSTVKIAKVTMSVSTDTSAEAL
Experimental: as §1, §2, §3, §4, §5, §6

CB2 (h) = biological target: T8, CB2 (h) (Homo sapiens, UniProt P34972); assay: Cerep panel binding assay; details: agonist radioligand
T8 construct: purchased Eurofins Pharma Discovery (Cerep) SafetyScreen44 Panel, ITEM P270
Experimental: as §1, §2, §3, §4, §5, §6

CCK1 (CCKA) (h) = biological target: T9, CCK1 (CCKA) (h) (Homo sapiens, UniProt P32238); assay: Cerep panel binding assay; details: agonist radioligand
T9 construct: Eurofins Pharma Discovery (CRO that ran the assay) SafetyScreen44 Panel (Cerep, ITEM P270)
T9 sequence (P32238 whole entry): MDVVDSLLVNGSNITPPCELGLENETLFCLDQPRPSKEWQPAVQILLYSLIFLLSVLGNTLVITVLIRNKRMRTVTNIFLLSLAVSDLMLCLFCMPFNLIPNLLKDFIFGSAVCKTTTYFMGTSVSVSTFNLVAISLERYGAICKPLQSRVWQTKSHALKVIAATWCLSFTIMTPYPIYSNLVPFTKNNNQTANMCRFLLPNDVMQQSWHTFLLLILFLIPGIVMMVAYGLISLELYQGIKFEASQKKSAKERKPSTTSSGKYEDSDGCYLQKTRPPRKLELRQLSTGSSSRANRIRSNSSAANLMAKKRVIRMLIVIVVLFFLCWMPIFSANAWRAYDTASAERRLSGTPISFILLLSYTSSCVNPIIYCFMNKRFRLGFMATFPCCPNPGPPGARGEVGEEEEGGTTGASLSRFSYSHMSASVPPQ
Experimental: as §1, §2, §3, §4, §5, §6

D2S (h) = biological target: T10, D2S (h) (Homo sapiens, UniProt P14416); assay: Cerep panel binding assay; details: agonist radioligand
T10 construct: Eurofins Pharma Discovery (CRO that ran the assay) SafetyScreen44 Panel (Cerep, ITEM P270)
Experimental: as §1, §2, §3, §4, §5, §6

ETA (h) = biological target: T11, ETA (h) (Homo sapiens, UniProt P25101); assay: Cerep panel binding assay; details: agonist radioligand
T11 construct: Eurofins Pharma Discovery (CRO that ran the assay) SafetyScreen44 Panel (Cerep, ITEM P270)
Experimental: as §1, §2, §3, §4, §5, §6

GR (h) = biological target: T12, GR (h) (Homo sapiens, UniProt P04150); assay: Cerep panel binding assay; details: agonist radioligand
T12 construct: purchased Eurofins Pharma Discovery (Cerep) SafetyScreen44 Panel, ITEM P270
T12 sequence (P04150 whole entry): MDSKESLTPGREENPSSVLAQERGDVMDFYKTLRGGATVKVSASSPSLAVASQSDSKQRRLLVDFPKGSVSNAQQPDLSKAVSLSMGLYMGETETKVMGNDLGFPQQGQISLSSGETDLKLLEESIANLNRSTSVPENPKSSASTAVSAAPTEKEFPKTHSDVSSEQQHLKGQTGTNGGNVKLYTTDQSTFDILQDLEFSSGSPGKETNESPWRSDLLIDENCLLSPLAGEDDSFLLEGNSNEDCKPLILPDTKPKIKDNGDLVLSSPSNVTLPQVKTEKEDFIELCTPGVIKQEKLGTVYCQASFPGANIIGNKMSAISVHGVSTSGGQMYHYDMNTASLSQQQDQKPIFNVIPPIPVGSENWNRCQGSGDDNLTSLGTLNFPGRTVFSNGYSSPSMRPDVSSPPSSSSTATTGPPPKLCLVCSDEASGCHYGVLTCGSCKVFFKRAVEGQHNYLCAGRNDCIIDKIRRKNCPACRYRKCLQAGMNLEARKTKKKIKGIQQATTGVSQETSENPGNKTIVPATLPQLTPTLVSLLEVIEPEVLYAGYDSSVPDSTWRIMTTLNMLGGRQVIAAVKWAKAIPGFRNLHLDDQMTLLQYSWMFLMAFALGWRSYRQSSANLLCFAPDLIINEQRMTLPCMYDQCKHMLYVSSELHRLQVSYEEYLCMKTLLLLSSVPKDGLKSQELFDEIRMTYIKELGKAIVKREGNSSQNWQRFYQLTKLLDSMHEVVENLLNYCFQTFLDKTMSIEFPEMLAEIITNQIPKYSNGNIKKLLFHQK
Experimental: as §1, §2, §3, §4, §5, §6

H1 (h) = biological target: T13, H1 (h) (Homo sapiens, UniProt P35367); assay: Cerep panel binding assay; details: antagonist radioligand
T13 construct: purchased Eurofins Pharma Discovery (Cerep) SafetyScreen44 Panel, ITEM P270
Experimental: as §1, §2, §3, §4, §5, §6

KV channel = assay: Cerep panel binding assay; details: 10 µM, antagonist radioligand
Experimental: as §1, §2, §3, §4, §5, §6

M1 (h) = biological target: T14, M1 (h) (Homo sapiens, UniProt P11229); assay: Cerep panel binding assay; details: antagonist radioligand
T14 construct: Eurofins Pharma Discovery (CRO that ran the assay) SafetyScreen44 Panel (Cerep, ITEM P270)
Experimental: as §1, §2, §3, §4, §5, §6

M2 (h) = biological target: T15, M2 (h) (Homo sapiens, UniProt P08172); assay: Cerep panel binding assay; details: antagonist radioligand
T15 construct: Eurofins Pharma Discovery (CRO that ran the assay) SafetyScreen44 Panel (Cerep, ITEM P270)
T15 sequence (P08172 whole entry): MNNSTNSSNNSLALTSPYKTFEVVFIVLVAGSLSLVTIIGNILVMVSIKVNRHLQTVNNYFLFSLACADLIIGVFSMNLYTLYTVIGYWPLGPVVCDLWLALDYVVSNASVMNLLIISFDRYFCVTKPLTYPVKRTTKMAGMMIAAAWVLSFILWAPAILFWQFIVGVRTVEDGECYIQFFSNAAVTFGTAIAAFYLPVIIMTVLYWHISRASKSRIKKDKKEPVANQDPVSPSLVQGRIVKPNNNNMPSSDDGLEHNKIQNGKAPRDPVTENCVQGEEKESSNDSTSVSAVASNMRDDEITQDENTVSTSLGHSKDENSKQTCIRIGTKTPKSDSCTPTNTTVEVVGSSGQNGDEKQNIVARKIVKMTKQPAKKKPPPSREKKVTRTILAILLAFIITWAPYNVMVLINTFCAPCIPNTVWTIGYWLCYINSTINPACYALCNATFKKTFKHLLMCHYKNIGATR
Experimental: as §1, §2, §3, §4, §5, §6

M3 (h) = biological target: T16, M3 (h) (Homo sapiens, UniProt P20309); assay: Cerep panel binding assay; details: antagonist radioligand
T16 construct: Eurofins Pharma Discovery (CRO that ran the assay) SafetyScreen44 Panel (Cerep, ITEM P270)
Experimental: as §1, §2, §3, §4, §5, §6

[5] = biological target: T17, N neuronal alpha4beta2 (h) (Homo sapiens, UniProt P17787+P43681); assay: Cerep panel binding assay; details: agonist radioligand
T17 construct: Eurofins Pharma Discovery (CRO that ran the assay) SafetyScreen44 Panel (Cerep, ITEM P270)
Experimental: as §1, §2, §3, §4, §5, §6

NMDA = assay: Cerep panel binding assay; details: 10 µM, antagonist radioligand
Experimental: as §1, §2, §3, §4, §5, §6

delta (DOP) (h) = biological target: T18, delta (DOP) (h) (Homo sapiens, UniProt P41143); assay: Cerep panel binding assay; details: agonist radioligand
T18 construct: purchased Eurofins Pharma Discovery (Cerep) SafetyScreen44 Panel, ITEM P270
T18 sequence (P41143 whole entry): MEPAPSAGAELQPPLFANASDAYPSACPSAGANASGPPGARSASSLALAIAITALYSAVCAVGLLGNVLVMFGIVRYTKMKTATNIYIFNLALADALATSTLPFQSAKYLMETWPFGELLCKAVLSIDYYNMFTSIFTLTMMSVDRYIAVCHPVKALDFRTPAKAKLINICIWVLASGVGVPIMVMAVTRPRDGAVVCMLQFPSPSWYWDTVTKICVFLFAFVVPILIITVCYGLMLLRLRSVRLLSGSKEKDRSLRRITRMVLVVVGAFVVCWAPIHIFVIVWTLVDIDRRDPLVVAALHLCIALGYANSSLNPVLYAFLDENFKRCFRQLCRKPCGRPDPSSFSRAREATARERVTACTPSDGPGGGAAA
Experimental: as §1, §2, §3, §4, §5, §6

dopamine transporter (h) = biological target: T19, dopamine transporter (h) (Homo sapiens, UniProt Q01959); assay: Cerep panel binding assay; details: antagonist radioligand
T19 construct: purchased Eurofins Pharma Discovery (Cerep) SafetyScreen44 Panel, ITEM P270
Experimental: as §1, §2, §3, §4, §5, §6

mu (MOP) (h) = biological target: T20, mu (MOP) (h) (Homo sapiens, UniProt P35372); assay: Cerep panel binding assay; details: agonist radioligand
T20 construct: purchased Eurofins Pharma Discovery (Cerep) SafetyScreen44 Panel, ITEM P270
T20 sequence (P35372 whole entry): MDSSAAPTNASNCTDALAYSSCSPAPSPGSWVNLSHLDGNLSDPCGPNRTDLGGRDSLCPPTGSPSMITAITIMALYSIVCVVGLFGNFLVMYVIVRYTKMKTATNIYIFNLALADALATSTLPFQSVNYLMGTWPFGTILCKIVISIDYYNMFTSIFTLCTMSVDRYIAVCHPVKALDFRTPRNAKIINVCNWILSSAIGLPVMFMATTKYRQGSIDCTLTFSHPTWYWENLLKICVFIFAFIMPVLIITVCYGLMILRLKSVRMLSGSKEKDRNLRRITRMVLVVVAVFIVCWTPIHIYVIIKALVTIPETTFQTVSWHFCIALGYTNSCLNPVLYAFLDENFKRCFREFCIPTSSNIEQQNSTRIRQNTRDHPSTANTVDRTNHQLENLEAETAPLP
Experimental: as §1, §2, §3, §4, §5, §6

[6] = Kinetic turbidimetric aqueous solubility; details: PBS buffer, kinetic from dmso stock

Question: Which IC50 [1] does the source give for `CC(C)Oc1ccc(-c2ncc(CNc3ccnc(C(F)(F)F)c3)cn2)cc1Cl` [Compound 24] here?
Answer: The IC50 was 245 ± 40 nM.

Question: What about the half-life [2] of the same compound?
Answer: Its half-life is 9 min.

Question: And the Plasma binding human [3]?
Answer: The Plasma binding human was over 99%.

Question: What about the IC50 [4] of the same compound?
Answer: The IC50 was over 30000 nM.

Question: And the inhibition at 10 µM (5-HT transporter (h))?
Answer: The inhibition at 10 µM was 49.8%.

Question: And the inhibition at 10 µM (5-HT1B (h))?
Answer: Its inhibition at 10 µM is -6.7%.

Question: What about the inhibition at 10 µM (5-HT2B (h)) of the same compound?
Answer: The inhibition at 10 µM was 62.2%.

Question: And the “BINDING (%)” value (A2A (h))?
Answer: The value was 2.2%.

Question: What about the inhibition at 10 µM (AR (h)) of the same compound?
Answer: Its inhibition at 10 µM is 12.7%.

Question: And the “BINDING (%)” value (BZD (central))?
Answer: Its value is “–27.1%”.

Question: What about the inhibition at 10 µM (CB1 (h)) of the same compound?
Answer: Its inhibition at 10 µM is 16.3%.

Question: And the inhibition at 10 µM (CB2 (h))?
Answer: Its inhibition at 10 µM is 31%.

Question: What about the inhibition at 10 µM (CCK1 (CCKA) (h)) of the same compound?
Answer: Its inhibition at 10 µM is -12%.

Question: What about the inhibition at 10 µM (D2S (h)) of the same compound?
Answer: The inhibition at 10 µM was -0.6%.

Question: What about the inhibition at 10 µM (ETA (h)) of the same compound?
Answer: The inhibition at 10 µM was -0.3%.

Question: What about the inhibition at 10 µM (GR (h)) of the same compound?
Answer: The inhibition at 10 µM was 16.2%.

Question: And the inhibition at 10 µM (H1 (h))?
Answer: Its inhibition at 10 µM is 8.2%.

Question: What about the “BINDING (%)” value (KV channel) of the same compound?
Answer: The value was 14.2%.

Question: And the inhibition at 10 µM (M1 (h))?
Answer: Its inhibition at 10 µM is -5.9%.

Question: What about the inhibition at 10 µM (M2 (h)) of the same compound?
Answer: The inhibition at 10 µM was 0%.

Question: And the inhibition at 10 µM (M3 (h))?
Answer: The inhibition at 10 µM was -2%.

Question: What about the inhibition at 10 µM [5] of the same compound?
Answer: The inhibition at 10 µM was -4.7%.

Question: And the “BINDING (%)” value (NMDA)?
Answer: Its value is 0.9%.

Question: What about the inhibition at 10 µM (delta (DOP) (h)) of the same compound?
Answer: The inhibition at 10 µM was 14.5%.

Question: What about the inhibition at 10 µM (dopamine transporter (h)) of the same compound?
Answer: Its inhibition at 10 µM is 22.7%.

Question: And the inhibition at 10 µM (mu (MOP) (h))?
Answer: Its inhibition at 10 µM is 8.2%.

Question: And the solubility kinetic at 5 min [6]?
Answer: The solubility kinetic at 5 min was 47.2 µM (≈ 20 µg/mL).
